Experimental data from patent US5332726A, “Antithrombotic peptides and pseudopeptides” (Rhone-Poulenc Rorer Pharmaceuticals Inc., priority 1992, dated 1994).
Where two headings read alike, the source gives them in different places. Non-standard residues stand in square brackets, D forms with d. Residues, ends and D or L forms follow the SMILES beside them. NMeV = CN[C@H](C(=O)O)C(C)C; Orn = NCCC[C@H](N)C(=O)O; Ava = NCCCCC(=O)O

Columns and labels:
[1] = molecular target: thrombin-stimulated platelets (Homo sapiens, UniProt P05106+P08514); test: Fibrinogen-Binding Assay (125I-fibrinogen binding to platelets)
thrombin-stimulated platelets, sequence (P08514 32-1039): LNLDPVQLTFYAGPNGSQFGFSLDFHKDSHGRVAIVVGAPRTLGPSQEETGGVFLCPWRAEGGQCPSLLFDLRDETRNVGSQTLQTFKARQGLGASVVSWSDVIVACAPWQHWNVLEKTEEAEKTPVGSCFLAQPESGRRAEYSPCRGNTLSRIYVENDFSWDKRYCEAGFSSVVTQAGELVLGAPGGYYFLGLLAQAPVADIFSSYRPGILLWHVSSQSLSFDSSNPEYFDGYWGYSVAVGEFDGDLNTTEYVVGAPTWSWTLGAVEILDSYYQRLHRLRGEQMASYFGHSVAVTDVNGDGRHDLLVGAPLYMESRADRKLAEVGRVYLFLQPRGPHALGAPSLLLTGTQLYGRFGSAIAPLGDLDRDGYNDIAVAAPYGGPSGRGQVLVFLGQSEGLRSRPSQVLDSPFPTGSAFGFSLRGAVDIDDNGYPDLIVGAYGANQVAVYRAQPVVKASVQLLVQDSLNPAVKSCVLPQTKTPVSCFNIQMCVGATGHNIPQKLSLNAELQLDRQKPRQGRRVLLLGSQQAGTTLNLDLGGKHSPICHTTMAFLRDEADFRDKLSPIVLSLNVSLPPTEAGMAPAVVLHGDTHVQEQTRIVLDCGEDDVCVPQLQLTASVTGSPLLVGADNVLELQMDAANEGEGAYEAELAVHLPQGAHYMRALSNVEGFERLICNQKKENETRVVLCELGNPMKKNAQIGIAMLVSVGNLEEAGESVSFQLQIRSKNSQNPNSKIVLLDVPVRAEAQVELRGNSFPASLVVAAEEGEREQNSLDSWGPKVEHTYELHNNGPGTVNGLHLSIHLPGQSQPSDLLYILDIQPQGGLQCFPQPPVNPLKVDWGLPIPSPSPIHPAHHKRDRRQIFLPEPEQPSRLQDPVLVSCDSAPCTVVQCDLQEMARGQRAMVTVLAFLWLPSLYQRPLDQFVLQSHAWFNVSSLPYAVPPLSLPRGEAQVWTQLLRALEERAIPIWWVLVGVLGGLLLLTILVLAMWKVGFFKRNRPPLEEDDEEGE
thrombin-stimulated platelets, sequence (P05106 27-788): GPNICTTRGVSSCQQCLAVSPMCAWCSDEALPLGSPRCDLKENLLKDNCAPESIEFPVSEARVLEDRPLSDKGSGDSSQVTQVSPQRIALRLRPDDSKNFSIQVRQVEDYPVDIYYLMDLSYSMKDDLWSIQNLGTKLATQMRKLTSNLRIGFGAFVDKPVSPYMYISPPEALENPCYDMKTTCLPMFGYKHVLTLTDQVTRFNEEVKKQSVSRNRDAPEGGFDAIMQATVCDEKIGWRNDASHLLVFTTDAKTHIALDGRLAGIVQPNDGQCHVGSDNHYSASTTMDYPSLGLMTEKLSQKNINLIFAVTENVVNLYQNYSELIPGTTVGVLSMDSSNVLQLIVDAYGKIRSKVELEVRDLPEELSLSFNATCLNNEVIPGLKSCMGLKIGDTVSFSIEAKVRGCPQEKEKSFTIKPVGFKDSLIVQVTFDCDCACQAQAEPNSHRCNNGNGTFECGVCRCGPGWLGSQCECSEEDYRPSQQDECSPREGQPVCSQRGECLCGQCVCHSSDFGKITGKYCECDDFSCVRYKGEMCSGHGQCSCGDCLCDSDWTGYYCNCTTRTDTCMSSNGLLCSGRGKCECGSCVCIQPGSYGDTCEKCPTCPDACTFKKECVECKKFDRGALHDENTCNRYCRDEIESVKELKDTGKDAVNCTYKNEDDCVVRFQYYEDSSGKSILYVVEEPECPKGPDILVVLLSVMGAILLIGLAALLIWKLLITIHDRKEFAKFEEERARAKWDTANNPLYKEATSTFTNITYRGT
Protocol: Platelets are washed free of plasma constituents by the albumin density-gradient technique of Walsh, P. N., et al., Br. J. Haematol. […] After these additions, the final platelet count in the mixture is 1×10^11 /liter. After incubation for an additional 30 minutes at 22°-25° C., bound and free ligand are separated by centrifuging 50 μl of the mixture through 300 μl of 20% sucrose at 12,000×g for 4 minutes. The platelet pellet is then separated from the rest of the mixture to determine platelet-bound radioactivity. Nonspecific binding is measured in mixtures containing an excess of unlabeled ligand. […] The IC50 is derived by plotting residual fibrinogen binding against the logarithm of the sample compound's concentration.

[2] = molecular target: fixed activated platelets (Homo sapiens, UniProt P05106+P08514); test: Platelet Aggregation Assay (fibrinogen-mediated aggregation of fixed-activated platelets); format: cell-based
fixed activated platelets, sequence (P08514 32-1039): as the sequence (P08514 32-1039) above
fixed activated platelets, sequence (P05106 27-788): as the sequence (P05106 27-788) above
Protocol: PLATELET AGGREGATION ASSAY
Preparation of Fixed-Activated Platelets
To the activated platelets is added paraformaldehyde to a final concentration of 0.50% and this incubated at room temperature for 30 minutes. The fixed activated platelets are then collected by centrifugation at 650×g for 15 minutes.
Platelet Aggregation Assay
The fixed activated platelets are incubated with a selected dose of the compound to be tested for platelet aggregation inhibition for one minute and aggregation initiated by addition of human fibrinogen to a final concentration of 250 μg/ml. A platelet aggregation profiler Model PAP-4 is used to record the platelet aggregation.

[3] = 125I-fibrinogen 0.176 μmol/liter, thrombin-stimulated platelets; read-out: Inhibition of 125I-Fibrinogen Binding to Platelets IC50
[4] = fixed activated platelets, human fibrinogen 250 μg/ml; read-out: Inhibition of Fibrinogen Mediated Platelet Aggregation IC50
[5] = read-out: Inhibition of Fibrinogen Mediated Platelet Aggregation % inhibition at 25 μM
[6] = read-out: Inhibition of 125I-Fibrinogen Binding to Platelets: Inhibited <50% at 50 μg/ml
[7] = read-out: Inhibition of Fibrinogen Mediated Platelet Aggregation % inhibition at 100 μM

Row | IC50 [1, 3] [nM] | IC50 [2, 4] [nM] | inhibition at 25 µM [2, 5] [%] | SMILES | IC50 ([1]; read-out: Inhibition of 125I-Fibrinogen Binding to Platelets IC50; 125I-fibrinogen 0.176 μmol/liter, thrombin-stimulated platelets) [nM] | IC50 ([2]; read-out: Inhibition of Fibrinogen Mediated Platelet Aggregation IC50; fixed activated platelets, human fibrinogen 250 μg/ml) [nM] | inhibition at 50 µg/mL [1, 6] [%] | inhibition at 100 µM [2, 7] [%]
1 | 54000 | > 25000 | 13 | CC(C)C[C@@H](CCC(=O)O)NC(=O)[C@H](CC(=O)O)NC(=O)CCCCCCCCNC(=N)N [N-(9-guanidinononanoyl-L-aspartyl)-(R)-4-amino-4-isobutylbutyric acid] | – | – | – | –
2 | 520 | 2100 | 97 | CN(CC(=O)N[C@@H](CC(=O)O)C(=O)N[C@@H](CCCNC(=N)N)C(=O)O)C(=O)CCCCCNC(=N)N [6-Guanidinohexanoyl-sarcosyl-L-aspartyl-L-arginine] | – | – | – | –
3 | 390 | 540 | 90 | CCN(CC(=O)N[C@@H](CC(=O)O)C(=O)N[C@@H](CC(C)C)C(=O)O)C(=O)CCCCNC(=N)N [5-guanidinopentanoyl-N-(ethyl)-glycyl-L-aspartyl-L-leucine] | – | – | – | –
4 | 640 | 1500 | 93 | N=C(N)NCCCCCCCCC(=O)N[C@@H](CC(=O)O)C(=O)NCCC(=O)N[C@@H](CCCNC(=N)N)C(=O)O [9-Guanidinononanoyl-L-aspartyl-β-alanyl-L-arginine] | – | – | – | –
5 | 90 | 330 | 88 | CC(C)C[C@H](NC(=O)[C@H](CC(=O)O)NC(=O)CN(C)C(=O)CCCCCNC(=N)N)C(=O)O [6-Guanidinohexanoyl-L-sarcosyl-L-aspartyl-L-leucine] | – | – | – | –
6 | > 200000 | – | 30 | CCC(CCCCCCNC(=N)N)C(=O)NC(CC(=O)O)C(=O)N[C@H](C(=O)O)C(C)C (mixture of isomers) [8-Guanidino-2-(R,S)-ethyl-octanoyl-L-aspartyl-L-valine] | – | – | – | –
7 | – | 160000 | – | CC(C)[C@@H](C(=O)O)N(C)C(=O)[C@H](CC(=O)O)NC(=O)CNC(=O)[C@@H](N)CCCNC(=N)N [L-arginylglycyl-L-aspartyl-L-(N-methyl)-valine] (H-RGD[NMeV]-OH) | – | – | < 50 | 30
8 | 240 | 5700 | 95 | CC[C@H](C)[C@H](NC(=O)[C@H](CC(=O)O)NC(=O)CCCCCCCCNC(=N)N)C(=O)NCCCCNC(=N)N [9-Guanidinononanoyl-L-aspartyl-isoleucine-4-guanidinobutyl amide] | – | – | – | –
9 | 120 | 730 | 97 | CCC(C)COC(=O)[C@H](CCCNC(=N)N)NC(=O)[C@H](CC(=O)O)NC(=O)CCCCCCCCNC(=N)N (stereo partly drawn) [9-Guanidinononanoyl-L-aspartyl-L-arginine-2-methyl-butylester] | – | – | – | –
10 | 1400 | 6500 | 90 | CC(C)[C@H](NC(=O)[C@H](CC(=O)O)NC(=O)CNC(=O)CCCCCNC(=N)N)C(=O)O [6-Guanidinohexanoyl-glycyl-L-aspartyl-L-valine] | – | – | – | –
11 | 2800 | 2700 | 89 | CC(C)[C@H](NC(=O)[C@H](CC(=O)O)NC(=O)CCCCCCCNC(=N)N)C(=O)O [8-Guanidinooctanoyl-L-aspartyl-L-valine] | – | – | – | –
12 | 150 | 1700 | 97 | CC(C)CCOC(=O)[C@H](CCCNC(=N)N)NC(=O)[C@H](CC(=O)O)NC(=O)CCCCCCCCNC(=N)N [9-Guanidinononanoyl-L-aspartyl-L-arginine-3-methylbutyl ester] | – | – | – | –
13 | 450 | 2700 | 94 | CCN(CC(=O)N[C@@H](CC(=O)O)C(=O)N[C@H](C(=O)O)C(C)C)C(=O)CCCNC(=N)N [4-Guanidinobutanoyl-N-(ethyl)glycyl-L-aspartyl-L-valine] | – | – | – | –
14 | 68500 | > 64000 | – | CC(C)[C@H](NC(=O)[C@H](CC(=O)O)NC(=O)CNC(=O)CCCCN)C(=O)O [N-(5-Aminopentanoyl) glycyl-L-aspartyl-L-valine] (H-[Ava]GDV-OH) | – | – | – | 67
15 | 240 | 1400 | 97 | CCN(CC(=O)N[C@@H](CC(=O)O)C(=O)N[C@@H](CCCNC(=N)N)C(=O)O)C(=O)CCCCCNC(=N)N [6-Guanidinohexanoyl-N-ethylglycyl-L-aspartyl-L-arginine] | – | – | – | –
16 | 6400 | 21000 | 56 | CC(C)[C@H](NC(=O)[C@H](CC(=O)O)NC(=O)CNC(=O)CCCCCCNC(=N)N)C(=O)O [7-Guanidinoheptanoyl-glycyl-L-aspartyl-L-valine] | – | – | – | –
17 | > 200000 | > 25000 | 10 | N=C(N)NCCCCCCCCC(=O)N[C@@H](CC(=O)O)C(=O)NC(Cc1ccccc1)(Cc1ccccc1)C(=O)O [9-Guanidinononanoyl-L-aspartyl-α-benzylphenylalanine] | – | – | – | –
18 | 2000 | > 25000 | 35 | CC(C)[C@H](NC(=O)[C@H](CC(=O)O)NC(=O)CCCCCCn1ccnc1)C(=O)O [7-(Imidazol-1-yl)heptanoyl-L-aspartyl-L-valine] | – | – | – | –
19 | 1250 | 20200 | 58 | CC(C)[C@H](NC(=O)[C@H](CC(=O)O)NC(=O)CNC(=O)CCCCn1ccnc1)C(=O)O [5-(Imidazol-1-yl)-valeroylglycyl-L-aspartyl-L-valine] | – | – | – | –
20 | 260 | 820 | 91 | N=C(N)NCCCCCCCCC(=O)N[C@@H](CC(=O)O)C(=O)N[C@@H](CCCNC(=N)N)C(=O)OC1CCCCC1 [9-Guanidinononanoyl-L-aspartyl-L-arginine-cyclohexylester] | – | – | – | –
21 | 40000 | 25000 | 54 | CC[C@H](C)[C@H](NC(=O)CNC(=O)[C@H](CC(=O)O)NC(=O)CCCCCCCCNC(=N)N)C(=O)O [9-Guanidinononanoyl-L-aspartyl-glycyl-L-isoleucine] | – | – | – | –
22 | 100 | 1500 | 86 | CC(C)CN(CC(=O)N[C@@H](CC(=O)O)C(=O)N[C@H](C(=O)O)C(C)C)C(=O)CCCCCNC(=N)N [6-Guanidinohexanoyl-N-isobutylglycyl-L-aspartyl-L-valine] | – | – | – | –
23 | 1000 | 520 | 94 | CC(C)[C@H](NC(=O)[C@H](CC(=O)O)NC(=O)CN(C)C(=O)CCCCNC(=N)N)C(=O)O [5-Guanidinovaleroyl-sarcosyl-L-aspartyl-L-valine] | – | – | – | –

Row | SMILES | IC50 [1, 3] [nM] | IC50 [2, 4] [nM] | inhibition at 25 µM [2, 5] [%] | IC50 ([1]; read-out: Inhibition of 125I-Fibrinogen Binding to Platelets IC50; 125I-fibrinogen 0.176 μmol/liter, thrombin-stimulated platelets) [nM] | IC50 ([2]; read-out: Inhibition of Fibrinogen Mediated Platelet Aggregation IC50; fixed activated platelets, human fibrinogen 250 μg/ml) [nM] | inhibition at 50 µg/mL [1, 6] [%] | inhibition at 100 µM [2, 7] [%]
24 | CC(C)[C@H](NC(=O)[C@H](CC(=O)O)NC(=O)Cn1nnnc1CCCCCNC(=N)N)C(=O)O [[5-(5'-Guanidinopentyl)Tetrazol-1-yl]-Acetyl-L-Aspartyl-L-Valine] | – | – | 40 | 2200 | > 25000 | – | –
25 | N=C(N)NCCCCCCCCC(=O)N[C@@H](CC(=O)O)C(=O)N[C@@H](Cc1ccccc1)C(=O)N[C@@H](CCCNC(=N)N)C(=O)O [9-Guanidinononanoyl-L-aspartyl-L-phenylalanine-L-arginine] | 6000 | 320 | 98 | – | – | – | –
26 | CC(C)[C@H](NC(=O)[C@H](CC(=O)O)NC(=O)CNC(=O)[C@@H](N)CCCN)C(=O)O [L-ornithylglycyl-L-aspartyl-L-valine] (H-[Orn]GDV-OH) | – | 15000 | – | – | – | < 50 | 80
27 | N=C(N)NCCCCC(=O)NCC(=O)N[C@@H](CC(=O)O)C(=O)NCCc1ccccc1 [N-(5-guanidinopentanoyl)glycyl-L-aspartylphenethylamide] | 20000 | 2100 | – | – | – | – | 86
